Bridge positions count the residues as written; N and C are the ends. Square brackets hold non-standard residues; d marks the D form. Peptide text beside a SMILES is read from it. * marks the point of attachment. Phe(4-COOH) = N[C@@H](Cc1ccc(C(=O)O)cc1)C(=O)O; Bip = N[C@@H](Cc1ccc(-c2ccccc2)cc1)C(=O)O; Phe(3-Me) = Cc1cccc(C[C@H](N)C(=O)O)c1; aIle = CC[C@@H](C)[C@H](N)C(=O)O; 4Pal = N[C@@H](Cc1ccncc1)C(=O)O; Cha = N[C@@H](CC1CCCCC1)C(=O)O; Cit = NC(=O)NCCC[C@H](N)C(=O)O; Carboxymethyl = O=C(O)C*; NMeA = CN[C@@H](C)C(=O)O; Dab = NCC[C@H](N)C(=O)O
target: T1, PE-labeled human PD-L1-Ig binding to Jurkat cell line over-expressing human PD-1 (Jurkat-PD-1) (Homo sapiens, UniProt Q15116); test: Jurkat-PD-1 Cell Binding High-Content Screening Assay (CBA): Method 1; settings: Jurkat-hPD-1 cells, PE-labeled PD-L1-Ig 20 nM final; read-out: Jurkat HPDL1 PD1 IC50 (uM) (Method 1)
T1 construct: expressed in transfected cells; host or cells: Jurkat
T1 sequence (Q15116 25-288): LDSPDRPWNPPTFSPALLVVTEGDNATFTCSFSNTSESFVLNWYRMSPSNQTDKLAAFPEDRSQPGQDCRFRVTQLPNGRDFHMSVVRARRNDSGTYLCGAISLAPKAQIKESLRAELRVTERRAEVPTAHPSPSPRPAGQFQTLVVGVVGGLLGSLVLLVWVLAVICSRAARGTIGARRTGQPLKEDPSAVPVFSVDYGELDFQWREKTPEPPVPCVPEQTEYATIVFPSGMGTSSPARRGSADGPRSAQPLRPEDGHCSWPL

IC50 [µM] | Compound
0.19 | CC(C)C[C@@H]1NC(=O)[C@H](Cc2c[nH]c3ccccc23)NC(=O)[C@H](CC(=O)O)NC(=O)[C@H](Cc2ccc(C(=O)O)cc2)NC(=O)[C@H](Cc2ccc(OCC(=O)O)cc2)NC(=O)CSC[C@@H](C(=O)NCC(N)=O)NC[C@H](CO)NC(=O)[C@H](C(C)C)NC(=O)[C@H](CC2CCCCC2)NC(=O)[C@H](CC(N)=O)NC(=O)[C@@H](CC(C)C)NC(=O)[C@H](C)N(C)C(=O)[C@H](C(C)C)NC(=O)[C@H](Cc2ccc(-c3ccccc3)cc2)NC1=O [Compound 1623]
0.01 | CC(C)C[C@@H]1NC(=O)[C@H](Cc2c[nH]c3ccccc23)NC(=O)[C@H](CC(=O)O)NC(=O)[C@H](Cc2ccncc2)NC(=O)[C@H](CN)NC(=O)CSC[C@@H](C(=O)NCC(N)=O)NC[C@H](CO)NC(=O)[C@H](C(C)C)NC(=O)[C@H](CC2CCCCC2)NC(=O)[C@H](CC(N)=O)NC(=O)[C@@H](CC(C)C)NC(=O)[C@H](C)N(C)C(=O)[C@H](C(C)C)NC(=O)[C@H](Cc2ccc(-c3ccccc3)cc2)NC1=O [Compound 1625]
0.06 | CC(C)C[C@@H]1NC(=O)[C@H](Cc2c[nH]c3ccccc23)NC(=O)[C@H](CC(=O)O)NC(=O)[C@H](Cc2ccc(OCC(=O)O)cc2)NC(=O)[C@H](Cc2ccccc2)NC(=O)CSC[C@@H](C(N)=O)NC(=O)[C@H](CO)NC(=O)[C@H](C(C)C)NC(=O)[C@H](CC(C)C)NC(=O)[C@H](CC(N)=O)NC(=O)[C@@H](CC(C)C)NC(=O)[C@H](C)N(C)C(=O)[C@H](CCCNC(N)=O)NC(=O)[C@H](Cc2ccc(-c3ccccc3)cc2)NC1=O [Compound 1627] ({CH2CO}-FY(Carboxymethyl)DWL[Bip][Cit][NMeA][dL]NLVSC-NH2; thioether N-14)
0.09 | CC(C)C[C@@H]1NC(=O)[C@H](Cc2c[nH]c3ccccc23)NC(=O)[C@H](CC(=O)O)NC(=O)[C@H](Cc2ccc(OCC(=O)O)cc2)NC(=O)[C@H](Cc2ccccc2)NC(=O)CSC[C@@H](C(N)=O)NC(=O)[C@H](CO)NC(=O)[C@H](C(C)C)NC(=O)[C@H](CC(C)C)NC(=O)[C@H](CC(N)=O)NC(=O)[C@@H](CC(C)C)NC(=O)[C@H](C)N(C)C(=O)[C@H](CCC(=O)O)NC(=O)[C@H](Cc2ccc(-c3ccccc3)cc2)NC1=O [Compound 1628] ({CH2CO}-FY(Carboxymethyl)DWL[Bip]E[NMeA][dL]NLVSC-NH2; thioether N-14)
0.05 | CC[C@H](C)[C@@H]1NC(=O)[C@H](Cc2ccc(-c3ccccc3)cc2)NC(=O)[C@H](CC(C)C)NC(=O)[C@H](Cc2c[nH]c3ccccc23)NC(=O)[C@H](CC(=O)O)NC(=O)[C@H](Cc2ccc(OCC(=O)O)cc2)NC(=O)[C@H](Cc2ccccc2)NC(=O)CSC[C@@H](C(N)=O)NC(=O)[C@H](CO)NC(=O)[C@H](C(C)C)NC(=O)[C@H](CC(C)C)NC(=O)[C@H](CC(N)=O)NC(=O)[C@@H](CC(C)C)NC(=O)[C@H](C)N(C)C1=O [Compound 1629] ({CH2CO}-FY(Carboxymethyl)DWL[Bip]I[NMeA][dL]NLVSC-NH2; thioether N-14)
0.11 | CC(C)C[C@@H]1NC(=O)[C@H](CC(N)=O)NC(=O)[C@@H](CC(C)C)NC(=O)[C@H](C)N(C)C(=O)[C@H](CCC(=O)O)NC(=O)[C@H](Cc2ccc(-c3ccccc3)cc2)NC(=O)[C@H](C(C)C)NC(=O)[C@H](Cc2c[nH]c3ccccc23)NC(=O)[C@H](CC(=O)O)NC(=O)[C@H](Cc2ccc(O)cc2)NC(=O)[C@H](Cc2ccncc2)NC(=O)CSC[C@@H](C(N)=O)NC(=O)[C@H]([C@@H](C)O)NC(=O)[C@H](C(C)C)NC1=O [Compound 1631] ({CH2CO}-[4Pal]YDWV[Bip]E[NMeA][dL]NLVTC-NH2; thioether N-14)
0.13 | CC[C@H](C)[C@@H]1NC(=O)[C@H](Cc2ccc(-c3ccccc3)cc2)NC(=O)[C@H](C(C)C)NC(=O)[C@H](Cc2c[nH]c3ccccc23)NC(=O)[C@H](CC(=O)O)NC(=O)[C@H](Cc2ccc(O)cc2)NC(=O)[C@H](Cc2ccncc2)NC(=O)CSC[C@@H](C(N)=O)NC(=O)[C@H]([C@@H](C)O)NC(=O)[C@H](C(C)C)NC(=O)[C@H](CC(C)C)NC(=O)[C@H](CCN)NC(=O)[C@@H](CC(C)C)NC(=O)[C@H](C)N(C)C1=O [Compound 1632] ({CH2CO}-[4Pal]YDWV[Bip]I[NMeA][dL][Dab]LVTC-NH2; thioether N-14)
0.01 | CC[C@H](C)[C@@H]1NC(=O)[C@H](Cc2ccc(-c3ccccc3)cc2)NC(=O)[C@H](CC(C)C)NC(=O)[C@H](Cc2c[nH]c3ccccc23)NC(=O)[C@H](CC(=O)O)NC(=O)[C@H](Cc2ccc(C(=O)O)cc2)NC(=O)[C@H](Cc2ccc(OCC(=O)O)cc2)NC(=O)CSC[C@@H](C(N)=O)NC(=O)[C@H](CO)NC(=O)[C@H](C(C)C)NC(=O)[C@H](CC2CCCCC2)NC(=O)[C@H](CCN)NC(=O)[C@@H](CC(C)C)NC(=O)[C@H](C)N(C)C1=O [Compound 1635] ({CH2CO}-Y(Carboxymethyl)[Phe(4-COOH)]DWL[Bip]I[NMeA][dL][Dab][Cha]VSC-NH2; thioether N-14)
0.01 | CC(C)C[C@@H]1NC(=O)[C@H](Cc2c[nH]c3ccccc23)NC(=O)[C@H](CC(=O)O)NC(=O)[C@H](Cc2ccc(C(=O)O)cc2)NC(=O)[C@H](Cc2ccc(OCC(=O)O)cc2)NC(=O)CSC[C@@H](C(N)=O)NC(=O)[C@H](CO)NC(=O)[C@H](C(C)C)NC(=O)[C@H](CC2CCCCC2)NC(=O)[C@H](CCN)NC(=O)[C@@H](CC(C)C)NC(=O)[C@H](C)N(C)C(=O)[C@H](CCCNC(N)=O)NC(=O)[C@H](Cc2ccc(-c3ccccc3)cc2)NC1=O [Compound 1636] ({CH2CO}-Y(Carboxymethyl)[Phe(4-COOH)]DWL[Bip][Cit][NMeA][dL][Dab][Cha]VSC-NH2; thioether N-14)
0.15 | Cc1cccc(C[C@@H]2NC(=O)[C@H](CC(=O)O)NC(=O)[C@H](Cc3ccc(O)cc3)NC(=O)[C@H](CC(N)=O)NC(=O)CSC[C@@H](C(N)=O)NC(=O)[C@H]([C@@H](C)O)NC(=O)[C@H](C(C)C)NC(=O)[C@H](CC(C)C)NC(=O)[C@H](CCN)NC(=O)[C@@H](CC(C)C)NC(=O)[C@H](C)N(C)C(=O)[C@H](C(C)C)NC(=O)[C@H](Cc3ccc(-c4ccccc4)cc3)NC(=O)[C@H](C(C)C)NC2=O)c1 [Compound 1637] ({CH2CO}-NYD[Phe(3-Me)]V[Bip]V[NMeA][dL][Dab]LVTC-NH2; thioether N-14)
0.07 | CC[C@@H](C)[C@@H]1NC(=O)[C@H](Cc2ccc(-c3ccccc3)cc2)NC(=O)[C@H](CC(C)C)NC(=O)[C@H](Cc2cccc(C)c2)NC(=O)[C@H](CC(=O)O)NC(=O)[C@H](Cc2ccncc2)NC(=O)[C@H](Cc2ccc(OCC(=O)O)cc2)NC(=O)CSC[C@@H](C(N)=O)NC(=O)[C@H](CO)NC(=O)[C@H](C(C)C)NC(=O)[C@H](CC(C)C)NC(=O)[C@H](CC(N)=O)NC(=O)[C@@H](CC(C)C)NC(=O)[C@H](C)N(C)C1=O [Compound 1638] ({CH2CO}-Y(Carboxymethyl)[4Pal]D[Phe(3-Me)]L[Bip][aIle][NMeA][dL]NLVSC-NH2; thioether N-14)
0.06 | CC[C@@H](C)[C@@H]1NC(=O)[C@H](Cc2ccc(-c3ccccc3)cc2)NC(=O)[C@H](CC(C)C)NC(=O)[C@H](Cc2cccc(C)c2)NC(=O)[C@H](CC(=O)O)NC(=O)[C@H](Cc2ccc(C(=O)O)cc2)NC(=O)[C@H](Cc2ccc(OCC(=O)O)cc2)NC(=O)CSC[C@@H](C(N)=O)NC(=O)[C@H](CO)NC(=O)[C@H](C(C)C)NC(=O)[C@H](CC(C)C)NC(=O)[C@H](CC(N)=O)NC(=O)[C@@H](CC(C)C)NC(=O)[C@H](C)N(C)C1=O [Compound 1639] ({CH2CO}-Y(Carboxymethyl)[Phe(4-COOH)]D[Phe(3-Me)]L[Bip][aIle][NMeA][dL]NLVSC-NH2; thioether N-14)

Source: US20240409585A1, “MACROCYCLIC IMMUNOMODULATORS” (priority 2021, published 2024)
